Measurements as given in the NIST ThermoML archive (doi:10.1021/je201009c).

Assay: refractive index (Na D-line) (dimensionless); xn = mol fraction of the nth substance listed
Details: Liquid, Standard Abbe refractometry

CC(=O)OCc1ccccc1 [benzyl ethanoate] + CCO
refractive index, 100.8 kPa
Details	293.15 K	303.15 K	313.15 K	323.15 K
x2 = 0	1.50245	1.49776	1.49309	1.48834
x2 = 0.0502	1.49958	1.49479	1.49006	1.48521
x2 = 0.1	1.49646	1.49168	1.48693	1.48205
x2 = 0.1498	1.49316	1.48838	1.48362	1.47874
x2 = 0.1998	1.48968	1.48491	1.48007	1.47517
x2 = 0.2499	1.48589	1.48118	1.47629	1.47143
x2 = 0.2998	1.4819	1.47715	1.47228	1.46739
x2 = 0.35	1.4776	1.47284	1.46794	1.46309
x2 = 0.4	1.47289	1.46818	1.46327	1.45847
x2 = 0.4501	1.46787	1.46316	1.45826	1.45346
x2 = 0.5	1.46245	1.45772	1.45286	1.44807
x2 = 0.5499	1.45652	1.45179	1.44703	1.44215
x2 = 0.6	1.44996	1.44531	1.44052	1.43561
x2 = 0.65	1.44279	1.43815	1.43339	1.42851
x2 = 0.7	1.43481	1.43018	1.42552	1.42067
x2 = 0.7499	1.42603	1.42142	1.41682	1.41198
x2 = 0.7999	1.41623	1.41163	1.40711	1.40231
x2 = 0.85	1.40518	1.40062	1.39617	1.39132
x2 = 0.9	1.39263	1.38811	1.38375	1.37895
x2 = 0.95	1.3782	1.37384	1.36951	1.36489

CC(=O)OCc1ccccc1 [benzyl ethanoate] + OCc1ccccc1
refractive index, 101 kPa
Details	293.15 K	303.15 K	313.15 K	323.15 K
x1 = 0.05	1.53821	1.5339	1.52962	1.52532
x1 = 0.1001	1.53584	1.53143	1.52715	1.52278
x1 = 0.1502	1.53352	1.52903	1.52471	1.5203
x1 = 0.2001	1.53127	1.52673	1.52235	1.51791
x1 = 0.25	1.52907	1.52449	1.52007	1.5156
x1 = 0.3	1.52689	1.52231	1.51785	1.51335
x1 = 0.3498	1.5248	1.52022	1.51571	1.51118
x1 = 0.4001	1.52279	1.51819	1.51362	1.50908
x1 = 0.45	1.52083	1.51621	1.5116	1.50704
x1 = 0.5	1.51893	1.51428	1.50964	1.50506
x1 = 0.5501	1.5171	1.51239	1.50774	1.50314
x1 = 0.6001	1.5153	1.51057	1.5059	1.50128
x1 = 0.65	1.51352	1.50881	1.5041	1.49946
x1 = 0.6999	1.51182	1.50711	1.50237	1.49771
x1 = 0.7502	1.51014	1.50545	1.5007	1.49598
x1 = 0.8	1.50852	1.50383	1.49906	1.49434
x1 = 0.85	1.50696	1.50227	1.49748	1.49276
x1 = 0.9	1.50544	1.50075	1.49596	1.49124
x1 = 0.95	1.50396	1.49926	1.4945	1.48976
x1 = 1	1.50245	1.49776	1.49309	1.48834
